Reference: the METLIN SMRT retention time set (Domingo-Almenara et al. 2019)

Experiment: gradient 5% acetonitrile 3 min, to 50% in 2 min, to 85% in 15 min, held 3 min, 100 µL/min
Settings: column: Zorbax Extend-C18 2.1 x 50 mm; eluents: water / acetonitrile, 0.1% formic acid
How it was run: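 Data were gathered over 3 months by HPLC coupled to a quadrupole time-of-flight mass spectrometer, operated in positive and negative ionization mode. Mixtures of ~100 pure standards ran on a Zorbax Extend-C18 column (2.1 × 50 mm, 1.8 μm) at 100 μL/min, with water and acetonitrile each containing 0.1% formic acid and dead and dwell volumes of 40 μL and 900 μL. Retention time was read from adduct peaks picked by computer and checked manually.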

| RP-LC retention time [s] | Compound |
| --- | --- |
| 783 | COc1cc([C@@H]2c3cc4c(cc3[C@H](O)[C@@H](CO)[C@@H]2C(=O)NCc2cccc(C(F)(F)F)c2)OCO4)cc(OC)c1OC |
| 799 | CCC(C)NC(=O)c1ccc(-c2csc(C)n2)cc1 (stereo not given) |
| 1200 | CCc1ccccc1NC(=O)C1CCCN(c2nc3ccccc3nc2C(F)(F)F)C1 (stereo not given) |
| 823 | Cc1ccc(NC(=O)C2CCN(S(=O)(=O)c3cn(C(C)C)cn3)CC2)cc1F |
| 951 | CCS(=O)(=O)N1CC(=O)N(c2cc(C)ccc2C)C(C)(C(=O)NC2CCCCCC2)C1 (stereo not given) |
| 895 | Cc1cc(C)c2sc(NC(=O)C3=COCCO3)nc2c1 |
| 829 | CC1CCN(C(=O)c2ccc(OCC3CCCN(C(=O)C4CCCO4)C3)cc2)CC1 (stereo not given) |
| 1070 | O=c1ccc(-c2nc(-c3ccc(F)cc3)no2)nn1Cc1ccccc1F |
| 826 | Cc1cc(C)cc(N2CC(C)Cn3c2nc2c3c(=O)n(CC(=O)O)c(=O)n2C)c1 (stereo not given) |
| 702 | O=C(Cc1ccc2c(c1)OCO2)Nc1ccc2scnc2c1 |
| 914 | CC1(C(=O)NCc2ccccc2)CN(S(=O)(=O)c2ccccc2)CC(=O)N1c1ccc(F)cc1 (stereo not given) |
| 818 | CC(C(=O)N1CCCc2ccccc21)n1cnc2nc3c(cc2c1=O)CCCC3 (stereo not given) |
| 591 | O=C1CCCCC(Cc2cccnc2)(C(=O)NCc2ccc3c(c2)OCO3)N1 (stereo not given) |
| 648 | O=C(Nc1ccc(-c2cn3cccnc3n2)cc1)C1CCCC1 |
| 1010 | CCc1ccc(NC(=O)N2CCc3nc(-c4ccccc4)ncc3C2)cc1 |
| 862 | CCc1cccc(NC(=O)C2CCN(S(=O)(=O)c3ccc4c(c3)sc(=O)n4C)CC2)c1 |
| 760 | COc1ccc(OC)c2c1cc1n2CC(C)(C(=O)NC2CCCCCCC2)N(CCN(C)C)C1=O (stereo not given) |
| 573 | COc1cc([C@@H]2c3cc4c(cc3[C@H](O)[C@@H](CO)[C@@H]2C(=O)NCCCN(C)C2CCCCC2)OCO4)cc(OC)c1OC |
| 657 | O=C(NCc1cccnc1)c1cccn2c(=O)c3cc(Cl)ccc3nc12 |
| 807 | COc1ccc(-c2nc(Nc3ccccn3)sc2C)cc1 |
| 584 | COc1ccc(-c2[nH]ncc2CN2CCC3(CCC3O)CC2)cc1 (stereo not given) |
| 575 | CN1C(=O)CC[C@]2(C(=O)NCc3cc(F)ccc3F)CCCC[C@@H]12 |

| RP-LC retention time [s] | Compound |
| --- | --- |
| 848 | Cc1ccc(-c2nc3ncccn3c2Nc2ccc(C)c(C)c2)cc1 |
| 813 | O=C(Nc1ccc2c(c1)C(=O)Nc1ccccc1O2)Oc1ccccc1 |
| 601 | CCc1nc2cc(N3CCC(C(=O)NCc4ccccn4)CC3)cnc2nc1CC |
| 727 | COC(=O)c1cn(CC(=O)Nc2cc(F)ccc2F)c2nc(C)ccc2c1=O |
| 595 | Cc1csc(COc2ccc(C(=O)NC(C)CCc3ccccc3)cc2)n1 (stereo not given) |
| 685 | COC(=O)C(Cc1ccccc1)NC(=O)Nc1cccn2c(C)nnc12 (stereo not given) |
| 926 | O=C(Nc1ccnn1Cc1ccco1)C(c1ccccc1)c1ccccc1 |
| 1090 | Cc1ccccc1CNC(=O)C1(C)CCCN(C(=O)Nc2cc(Cl)ccc2C)C1 (stereo not given) |
| 1120 | CCS(=O)(=O)c1nc2ccc(NS(=O)(=O)c3ccc(C4CCCCC4)cc3)cc2s1 |
| 1010 | O=C(Cn1nc(N2CCSCC2)c2ccccc2c1=O)Nc1cccc(Cl)c1 |
| 819 | O=C(c1ccc(F)cc1)N1CCCC(c2nnc(-c3ccccc3)o2)C1 (stereo not given) |
| 584 | Cc1ccc2[nH]c(=O)c(CCC(=O)NCc3cccnc3)cc2c1 |
| 631 | O=C(NCc1ccc2c(c1)OCO2)C1CCc2nc(N3CCCC3)ncc2C1 (stereo not given) |
| 1010 | COc1ccc(Cl)cc1NC(=O)c1cnc2c(c1)c(=O)n(C)c(=O)n2-c1ccccc1 |
| 639 | O=C([C@@H]1C[C@H](F)CN1C(=O)C1(c2ccccc2)CC1)N1CCOCC1 |
| 904 | Cn1cccc1C(=O)C(=O)N1CCN(c2ccc(Cl)cc2)CC1 |
| 735 | COc1ccc(S(=O)(=O)C(CNC(=O)c2ccco2)c2cccs2)cc1 (stereo not given) |
| 944 | CCOC(=O)c1ccc(NC(=O)NCc2noc3ccc(C)cc23)cc1 |
| 634 | Cc1cc(C(=O)NCc2ccc(C)o2)c2ccccc2n1 |
| 637 | Cc1cnc(C2CC2)n1C1CCCN(S(=O)(=O)Cc2ccccc2)C1 (stereo not given) |
| 864 | CCOc1ccc2cccc(NC(=O)C3CCN(S(C)(=O)=O)CC3)c2n1 |
| 612 | CO[C@H]1CN(C2CCN(S(=O)(=O)Cc3ccccc3)CC2)[C@H]1c1ccncc1 |

| RP-LC retention time [s] | Compound |
| --- | --- |
| 1100 | CCN1C(=O)COc2ccc(-c3noc(C4CCCN(S(=O)(=O)c5ccc(C)cc5)C4)n3)cc21 (stereo not given) |
| 967 | COCCn1cc2c3c(cccc31)CN(C(=O)Cc1c(F)cccc1Cl)CC2 |
| 817 | O=C(C1CC(=O)N(c2n[nH]c3cccc(F)c23)C1)N1CCN(c2ccc(Cl)cc2)CC1 (stereo not given) |
| 667 | Cc1nn(-c2ccccc2)cc1C(=O)N1CCC(CC(=O)NC2CC2)CC1 |
| 877 | COC(=O)c1ccc(-c2nc3cnccn3c2NC2CCCC2)cc1 |
| 668 | Cc1nc(-c2ccc(C(=O)NC3CC3)cc2)no1 |
| 790 | COc1cccc(CC(=O)N2CCC3(CC2)NC(=O)c2ccc(Cl)cc2N3)c1 |
| 738 | CCN1CCCn2cc(S(=O)(=O)Nc3ccc(F)cc3Cl)cc2C1=O |
| 794 | Cc1ccc(NC(=O)N2CCCC2c2nncn2-c2ccccc2)c(Cl)c1 (stereo not given) |
| 1340 | CC1CCN(S(=O)(=O)c2ccc3nn(CCOc4ccc(F)cc4)c(=O)n3c2)CC1 |
| 671 | O=C(NCC(c1cccnc1)c1c[nH]c2ccccc12)Nc1cccc(F)c1 (stereo not given) |
| 661 | COc1ccc(-c2nc3cnccn3c2Nc2ccc(C(=O)NC(C)C)cc2)cc1OC |
| 984 | O=C(Cn1cnc2sc3c(c2c1=O)CCCC3)Nc1cccc(Cl)c1 |
| 590 | CN(C)CCNc1nc(-c2ccc(C(C)(C)C)cc2)nc2ccccc12 |
| 1000 | CCOc1ccc(NC(=O)C2(C)Oc3cccnc3N(C(C)C)C2=O)cc1 (stereo not given) |
| 752 | COc1ccc(S(=O)(=O)N2CCC(c3nc(C(=O)N4CCOCC4)c(C)o3)CC2)cc1 |
| 745 | COc1ccc(CCC(=O)NC(CC(C)C)C(=O)Nc2nc3ccccc3[nH]2)cc1 (stereo not given) |
| 815 | Cc1ccc(C(=O)N2CCC3(C2)C(=O)N(C)c2ccccc23)cc1F (stereo not given) |
| 725 | COc1ccc(C(=O)NC(CC(C)C)C(=O)Nc2nc3ccccc3[nH]2)cc1 (stereo not given) |
| 620 | CCN1CCCC1CNC(=O)CCC(=O)N1CCCn2nc(-c3cn(C)c4ccccc34)cc21 (stereo not given) |

| Compound | RP-LC retention time [s] |
| --- | --- |
| COc1ccc2c(c1)C1(CCN(S(=O)(=O)c3ccc(Br)cc3)C1)C(=O)N2 (stereo not given) | 881 |
